{"source": "patent US8377913B2", "about": "“Vitamin D receptor activators and methods of making” (AbbVie Inc., priority 2007, dated 2013)", "key": {"[1]": {"system": "Thrombomodulin mRNA in human coronary artery smooth muscle cells (CASMC)", "test": "Thrombomodulin mRNA in CASMC", "type": "cell-based", "details": "Homo sapiens", "experimental": "Primary culture of human coronary artery smooth muscle cells (CASMC) (commercially available from Cambrex, Walkersville, Md.) were grown in smooth muscle growth medium SmGM-2 (commercially available from Lonza Bioscience) containing 5.5 mM glucose, 5% FBS, 50 μg/ml gentamicin, 50 ng/ml amphotericin-B, 5 μg/ml insulin, 2 ng/ml human recombinant fibroblast growth factor (hFGF), and 0.5 ng/ml human recombinant epidermal growth factor (hEGF) at 37° C. in a humidified 5% CO2-95% air atmosphere. Cells were grown to >80% confluence and used within five passages.\nReal-time reverse transcription-PCR was performed with a MyiQ Real-Time PCR Detection System (BioRad, Hercules, Calif.). Each sample has a final volume of 25 μl containing 100 ng of cDNA, […] each of the forward and reverse PCR primers and […] of the TaqMan™ probe for the gene of interest (Applied Biosystems, Foster City, Calif.). Temperature conditions consisted of a step of 5 minutes at 95° C., followed by 40 cycles of 60° C. for 1 minute and 95° C. for 15 seconds. Data was collected during each extension phase of the PCR reaction and analyzed with the software package (BioRad, Hercules, Calif.). Threshold cycles were determined for each gene. […]"}, "Male, C57BL6, mice": {"system": "Male, C57BL6, mice", "test": "Normal Mouse Calcemia Model", "type": "in vivo", "experimental": "Male, C57BL6, mice were obtained from Jackson Laboratories. The mice were habituated for four days while maintained on a normal diet (D10001, Research Diets Inc.). Treatment was initiated with vehicle (20% ethanol/30% propylene glycol/50% water, 0.05 mL, s.c.) or test agent administered over a three log dose range. The animals were dosed once daily for 3 days. Twenty-four hours after the last dose, animals were anesthetized with ketamine/xylazine (100/18 mg/kg) and bled by cardiac puncture for measurement of PTH and other end points.\nMeasurement of PTH and minerals: Calcium (Ca), serum phosphorus (Pi), creatinine and BUN were measured from serum using an Abbott Aeroset® (Abbott Laboratories, Abbott Park, Ill.). Blood ionized calcium (iCa) was determined using the i-STAT® system (Abbott Laboratories, East Windsor, N.J.). Serum PTH was measured using a mouse parathyroid hormone (PTH) EIA kit obtained from ALPCO/Immutopics, Inc. (Windham, N.H.). Selected data is shown is Table 6. The graphs in FIG. 4 give an indication of dose response. Notable is that Example 1 produced an approximately 30% reduction in PTH over at least a three log dose range without a concomitant elevation of serum calcium of greater than 1 mg/dL.\nData analysis: Mean±standard error of the mean was calculated for each group. One way ANOVA followed by a Dunnett's test was used to assess differences between vehicle and drug-treated groups. *p<0.05=significance."}, "5/6 nephrectomized rats": {"system": "5/6 nephrectomized rats", "test": "Aortic Calcification in Uremic Rats", "type": "in vivo, rat", "details": "5/6 NX rats, at <100 μg/kg, i.p. 3 times per week for 41 Days", "experimental": "5/6 nephrectomized rats: Male Sprague-Dawley, 5/6 NX rats (˜200 g) were obtained from Charles River. The nephrectomy was performed using a standard two-step surgical ablation procedure. Beginning approximately 2 weeks post-nephrectomy, rats were maintained on a hyperphosphatemia-inducing diet (0.9% phosphorus and 0.6% calcium) for the duration of the study to induce secondary hyperparathyroidism (SHPT). After four weeks on the special diet, rats received vehicle (5% ethanol/95% propylene glycol; 0.4 mL/kg; i.p.) or test agent 3 times per week for 41 Days. On Days 0, 13, and 41 blood was collected (24 hours post-dose).\nTo minimize bias induced by variance in the disease state, 5/6 NX rats were assessed after 4 weeks of high phosphorus diet (prior to treatment) and the following inclusion/exclusion criteria were applied to the rats for study: • Serum creatinine=0.8-2.0 mg/dL (sham controls=0.43±0.01 mg/dL; n=20) • Exclude: serum calcium≦8.5 mg/dL (sham controls=10.05±0.05 mg/dL; n=20) • Exclude: serum phosphorus>12 mg/dL (sham controls=7.09±0.12 mg/dL; n=20) • Exclude: iPTH<400 pg/mL (sham controls=430±33 pg/mL; n=20)\nMeasurement of PTH and serum mineral levels: Serum PTH was measured using a rat intact PTH ELISA kit (ALPCO/lmmutopics, Inc., Windham, N.H.). Serum calcium, phosphorus, creatinine and BUN concentrations were measured using an Abbott Aeroset® (Abbott, Abbott Park, Ill.). […]"}, "5/6 NX uremic rats": {"system": "5/6 NX uremic rats", "test": "Study 2: left ventricular hypertrophy (LVH) in 5/6 NX uremic rats", "type": "in vivo, rat", "details": "1, 10 and 100 μg/kg, 3×/wk for 6 wks", "experimental": "Study 2: To determine if treatment with Example 1 (1, 10 & 100 μg/kg) reduces left ventricular hypertrophy (LVH) in 5/6 NX uremic rats.\nMethods: Previous studies have shown that the 5/6 NX rat is hypertensive and presents with left ventricular hypertrophy. Therefore, 5/6 NX rats were received from Charles River at 2 weeks uremia and fed TD04151 (0.6% Ca and 0.9 % P) 4 weeks prior to study. 5/6 NX rats were treated with Example 1 (1, 10 & 100 μg/kg) or vehicle (95% PG/5% EtOH) 3×/week for six weeks. On Days 0, 13 and 41 blood was drawn (24 hours post-dose). At the end of the six week treatment period, rats were anesthetized with isoflurane and echocardiography was performed. Left ventricular mass was determined according to the American Society of Echocardiography recommendations using the cube method. After euthanasia, direct measurements of left ventricular weight were obtained. Note: Vehicle treated SHAM and 5/6 NX rats (3×/week for six weeks) from previous studies were included in this study for comparison purposes. All values are mean±SEM. Data was analyzed using ANOVA and where noted t-test. * Indicates p<0.05 compared to SHAM."}, "[2]": {"details": "over at least a three log dose range"}}, "data": [{"smiles": "C=C1[C@H](O)CC(=C/C=C2\\CCC[C@]3(C)[C@@H]([C@H](C)COC(=O)C(C)(C)C)CC[C@@H]23)C[C@H]1O", "note": "[Example 1, (2S)-2-[(1R,3R,7E, 17β)-1,3-dihydroxy-2-methylene-9,10-secoestra-5,7-dien-17-yl]propyl pivalate]", "values": [{"measurement": "EC50", "setting": "[1]", "result": 2.2, "unit": "nM"}, {"measurement": "concomitant elevation of serum calcium", "setting": "Male, C57BL6, mice; [2]", "result": "≤ 1", "unit": "mg/dL"}, {"measurement": "reduction in PTH", "setting": "Male, C57BL6, mice; [2]", "result": "approximately 30%"}, {"measurement": "1 mg/dL Δ total Ca", "setting": "Male, C57BL6, mice; s.c. once daily for 3 days, dose giving 1 mg/dL change in total Ca", "result": ">100", "unit": "µg/kg"}, {"measurement": "ED50", "setting": "Male, C57BL6, mice; sc, 72 h, s.c. once daily for 3 days, read-out: PTH ED50", "result": 0.0105, "unit": "mg/kg"}, {"measurement": "effect on aortic calcification", "setting": "5/6 nephrectomized rats", "result": "did not have an effect"}, {"measurement": "exacerbation of LVH compared to controls", "setting": "5/6 NX uremic rats", "result": "no exacerbation"}]}]}
